The results in this text go back to US5085993A, “Coenzyme-independent L-sorbosone dehydrogenase from Pseudomonas putida” (Hoffmann-La Roche Inc., priority 1987, dated 1992).

In test [1] the test system is coenzyme independent L-sorbosone dehydrogenase of P. putida ATCC 21812. Description: Effect of addition of PQQ on the enzyme activity. It is filed as biochemical, Pseudomonas putida ATCC 21812. The following applies: 0 PQQ = 100. The text has this: Significant increase of the enzyme activity was observed by the addition of PQQ.
For test [2], the system named is coenzyme independent L-sorbosone dehydrogenase from P. putida ATCC 21812. Description: Measurement of the Km value (DCIP/phenazine methosulfate enzyme assay). The format is biochemical, Pseudomonas putida ATCC 21812. The conditions noted are these: DCIP and phenazine methosulfate as electron acceptors; 25° C., pH 7.0; read-out: apparent Michaelis constant (Km) for L-sorbosone. How it is done: In the procedure described under 1) above, the velocities of oxidizing reactions with varying concentrations of L-sorbosone were measured to determine the apparent Michaelis constant (Km) for L-sorbosone. Km value was calculated to be 13±2 mM with DCIP and phenazine methosulfate as electron acceptors.

The subject of test [3] is coenzyme independent L-sorbosone dehydrogenase of P. putida ATCC 21812. On the procedure:
Enzyme assay was carried out at 25° C. by measuring the decrease of absorbance at 600 nm of DCIP spectrophotometrically. One unit of enzyme activity was defined as the amount of enzyme which catalyzed the reduction of 1 μmole of DCIP per minute. The extinction coefficient of DCIP at pH 7.0 was taken as 9.45 mM^-1.
The basal reaction mixture was prepared by mixing 6 ml of 0.1M potassium phosphate buffer (pH 7.0) containing 0.3% Triton X-100, 0.45 ml of 2.5 mM DCIP and 10.35 ml of water. A cuvette with 1 cm light path contained 0.4 ml of basal reaction mixture, 20 μl of 10 mM phenazine methosulfate, 10 μl of enzyme solution and 20 μl of 110 mM L-sorbosone solution. A reference cuvette contained all the reagents except enzyme solution, but 10 μl of water was added instead. The reaction was started by the addition of the substrate.

Where two headings read alike, the source gives them in different places.

Take `O=C(O)c1cc(C(=O)O)c2c(n1)C(=O)C(=O)c1cc(C(=O)O)[nH]c1-2` [PQQ, pyrroloquinoline quinone]: the Relative enzyme activity in test [1] (PQQ concentration 0.1 (Micro Moles)) is reported as 106; in test [1] (PQQ concentration 0.2 (Micro Moles), 0.2 µM) it was 142; in test [1] (PQQ concentration 0.5 (Micro Moles), 0.5 µM) it was 150; in test [1] (PQQ concentration 0.9 (Micro Moles), 0.9 µM), 158; in test [1] (PQQ concentration 6.0 (Micro Moles), 6 µM) it was 174; in test [1] (PQQ concentration 15.0 (Micro Moles), 15 µM), 192.
For `O=CC(=O)[C@@H](O)[C@H](O)[C@@H](O)CO` [L-sorbosone], the Km in test [2] was 13 ± 2 mM.
For the molecule `[N-]=[N+]=[N-].[Na+]` [NaN3, Sodium azide], the “Relative activity (%)” value in test [3] (inhibitor 25.0 mM, None = 100.0) was determined as 77.3%.
With `O=C(O)CI` [ICH2 COOH, monoiodoacetate], the “Relative activity (%)” value in test [3] came to 88.6%.

One may read the Km as the substrate concentration at which the rate is half of its maximum.
